This experiment addresses T1, amyloid β-protein 42 (Aβ42) (Homo sapiens, UniProt P05067).
T1 construct: gene APP
The experiment can be described thus: ThT fluorescence fibrillation assay of synthetic Aβ[…]); supported by DSC Tm shifts, CD and AFM. It counts as biochemical. (DSC measures the heat that a sample takes up or gives off during a temperature scan.)

T1 sequence (P05067 672-713): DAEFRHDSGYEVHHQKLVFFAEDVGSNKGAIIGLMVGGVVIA

Consider `COC(=O)[C@]1(C)C(OC2OC(CO)C(O)C(O)C2O)[C@@H](O)C[C@@]2(C)C1CC[C@]1(C)C2CC=C2[C@@H]3CC(C)(C)CCC3(C(=O)O)CC[C@]21C` (stereo partly shown) [DA, doliroside A], for which the IC50 came to 26.6 ± 1.6 µM.

In general, IC50 refers to the concentration that inhibits the measured activity by half.

The record behind these values is article PMC5662078, “Doliroside A from Dolichos falcata Klein suppressing amyloid β-protein 42 fibrillogenesis: An insight at molecular level” (PLoS ONE, 2017).
